US8883771B2, “Bivalent inhibitors of IAP proteins and therapeutic methods using the same” (The Regents of the University of Michigan, priority 2012, dated 2014)

What was measured:
[1] = test system: SK-OV-3 ovarian cancer cell line; assay: Inhibition of cell growth in SK-OV-3 ovarian cancer cell line; assay type: cell-based, human; conditions: Homo sapiens
[2] = molecular target: XIAP linker-BIR2-BIR3 (residues 120-356) (Homo sapiens (Human), UniProt P98170); assay: Fluorescence polarization (FP) based competitive binding assay, XIAP linker-BIR2-BIR3; conditions: FP competitive assay, Smac-1F probe; read-out: Binding Affinities IC50 (nM) XIAP Protein
Protocol: (§1) For cIAP-1 BIR3 and cIAP-2 BIR3 assays, a fluorescently labeled Smac mimetic (Smac-2F) was used as the fluorescent probe. The Kd values of Smac-2F to cIAP-1 BIR3 and cIAP-2 BIR3 were determined by monitoring the total fluorescence polarization of mixtures composed with the fluorescent probe at a fixed concentration and proteins with increasing concentrations up to full saturation. Fluorescence polarization values were measured using the Infinite M-1000 plate reader (Tecan U.S., Research Triangle Park, N.C.) in Microfluor 2 96-well, black, round-bottom plates (Thermo Scientific). To each well, 1 nM of SMAC-2F and increasing concentrations of protein were added to a final volume of 125 μl in the assay buffer (100 mM potassium phosphate, pH 7.5, 100 μg/ml bovine γ-globulin, 0.02% sodium azide, Invitrogen, with 4% DMSO). Plates were incubated at room temperature for 1-2 hours and mixed with gentle shaking to assure equilibrium. […] Equilibrium dissociation constants (Kd) were then calculated by fitting the sigmoidal dose-dependent FP increases as a function of protein concentrations using Graphpad Prism 5.0 software (Graphpad Software, San Diego, Calif.).
(§2) Mixtures of 5 μl of the tested compounds in DMSO and 120 μl of preincubated protein/tracer complex in the assay buffer (100 mM potassium phosphate, pH 7.5, 100 μg/ml bovine γ-globulin, 0.02% sodium azide, Invitrogen) were added into assay plates and incubated at room temperature for 2 hours with gentle shaking. Final concentrations of proteins and probes were 3 nM and 1 nM, 5 nM and 1 nM for assays for cIAP-1 BIR3 and cIAP-2 BIR3, respectively. […] FP values were measured as described above. IC50 values were determined by nonlinear regression fitting of the competition curves. The Ki values of competitive inhibitors were calculated using the derived equation described previously, based upon the measured IC50 values, the Kd values of the probe to different proteins, and the concentrations of the proteins and probes in the competitive assays.
The FP-based assay for XIAP linker-BIR2-BIR3 protein was performed with the same procedures. In this assay, a bivalent fluorescently tagged peptidic Smac mimetic (Smac-1F) was used as the fluorescent probe whose Kd value to XIAP linker-BIR2-BIR3 was determined similarly through the saturation experiments. 0.01% of Triton X-100 was added in the assay buffer to achieve stable fluorescence and polarization value of the dimeric fluorescent probe. Final protein and probe concentrations utilized in the competitive assay were 3 nM and 1 nM, respectively.

[3] = test system: MDA-MB-231 breast cancer cell line; assay: Inhibition of cell growth in MDA-MB-231 breast cancer cell line; assay type: cell-based, human; conditions: Homo sapiens
[4] = molecular target: cIAP1-BIR3 (residues 253-363) (Homo sapiens (Human), UniProt Q13490); assay: Fluorescence polarization (FP) based competitive binding assay, cIAP1-BIR3; conditions: Smac-2F probe, read-out: Binding Affinities IC50 (nM) cIAP1 Protein
Protocol: as §1, §2

[5] = molecular target: cIAP-2 BIR3 (residues 238-349) (Homo sapiens (Human), UniProt Q13489); assay: Fluorescence polarization (FP) based competitive binding assay, cIAP-2 BIR3; conditions: FP competitive assay, Smac-2F probe; read-out: Binding Affinities IC50 (nM) cIAP2 Protein
Protocol: as §1, §2

MDA-MB-231 xenograft = assay: Antitumor activity in the MDA-MB-231 xenograft model in nude mice; assay type: in vivo; conditions: 3 mg/kg, weekly dose for 4 weeks (qwk×4, iv), start at average tumor volume 80 mm^3
Protocol: Treatments started when the tumors reached an average volume of 80 mm^3 Example 24 was given intravenously, weekly dose for 4 weeks (qwk×4, iv) at 10 mg/kg. Example 2 was given weekly dose for 4 weeks (qwk×4, iv) at 3 mg/kg. Control treatment was given vehicle control. Each group has 8-10 mice and each mouse has one tumor.

[6] = SK-OV-3, SK-OV-3 ovarian cancer cell line
[7] = MDA-MB-231, MDA-MB-231 breast cancer cell line
[8] = SK-OV-3 ovarian cancer cell line
[9] = MDA-MB-231 breast cancer cell line

SMILES	IC50 [1, 6]	IC50 [2]	IC50 [3, 7]	IC50 [4]	IC50 [5]	Antitumor activity (mean tumor volume) (MDA-MB-231 xenograft)	IC50 [1, 8]	IC50 [3, 9]
CN[C@@H](C)C(=O)N[C@H]1CN(C(=O)NCCCCCCNC(=O)N2CC[C@H]3CC[C@@H](C(=O)N[C@H]4CCC[C@@H]4c4ccccc4)N3C(=O)[C@@H](NC(=O)[C@H](C)NC)C2)CC[C@H]2CCC(C(=O)N[C@H]3CCC[C@@H]3c3ccccc3)N2C1=O (stereo in doubt) [Example 42]	< 1000 nM	< 1000 nM	< 1000 nM	< 1000 nM	< 3000 nM	–	–	–
CN[C@@H](C)C(=O)N[C@H]1CN(C(=O)NCCCCCCNC(=O)N2CC[C@H]3CC[C@@H](C(=O)N[C@@H]4CCC[C@H]4c4ccccc4)N3C(=O)[C@@H](NC(=O)[C@H](C)NC)C2)CC[C@H]2CCC(C(=O)N[C@@H]3CCC[C@H]3c3ccccc3)N2C1=O (stereo in doubt) [Example 43]	< 1000 nM	< 3000 nM	< 1000 nM	< 3000 nM	< 3000 nM	–	–	–
CN[C@@H](C)C(=O)N[C@H]1CN(C(=O)NCCCCCCNC(=O)N2CC[C@H]3CC[C@@H](C(=O)N[C@@H]4CCC[C@@H]4c4ccccc4)N3C(=O)[C@@H](NC(=O)[C@H](C)NC)C2)CC[C@H]2CCC(C(=O)N[C@@H]3CCC[C@@H]3c3ccccc3)N2C1=O (stereo in doubt) [Example 44]	< 1000 nM	< 1000 nM	< 1000 nM	< 1000 nM	< 3000 nM	–	–	–
CN[C@@H](C)C(=O)N[C@H]1CN(C(=O)Nc2ccc(NC(=O)N3CC[C@H]4CC[C@@H](C(=O)NC(c5ccccc5)c5ccccc5)N4C(=O)[C@@H](NC(=O)[C@H](C)NC)C3)cc2)CC[C@H]2CCC(C(=O)NC(c3ccccc3)c3ccccc3)N2C1=O (stereo partly drawn) [Example 2]	–	–	–	–	–	Tumor regression was achieved	–	–
CN[C@@H](C)C(=O)N[C@H]1CN(C(=O)NCCCCCCCCNC(=O)N2CC[C@H]3CC[C@@H](C(=O)N[C@@H]4CCCc5ccccc54)N3C(=O)[C@@H](NC(=O)[C@H](C)NC)C2)CC[C@H]2CCC(C(=O)N[C@@H]3CCCc4ccccc43)N2C1=O (stereo partly drawn) [Example 4]	–	< 10 nM	–	< 100 nM	< 100 nM	–	< 100 nM	< 100 nM
CN[C@@H](C)C(=O)N[C@H]1CN(C(=O)Nc2ccc(NC(=O)N3CC[C@H]4CC[C@@H](C(=O)N[C@@H]5CCCc6ccccc65)N4C(=O)[C@@H](NC(=O)[C@H](C)NC)C3)cc2)CC[C@H]2CCC(C(=O)N[C@@H]3CCCc4ccccc43)N2C1=O (stereo partly drawn) [Example 5]	< 100 nM	< 10 nM	< 100 nM	< 100 nM	< 100 nM	–	–	–
CN[C@@H](C)C(=O)N[C@H]1CN(C(=O)NCc2cccc(CNC(=O)N3CC[C@H]4CC[C@@H](C(=O)N[C@@H]5CCCc6ccccc65)N4C(=O)[C@@H](NC(=O)[C@H](C)NC)C3)c2)CC[C@H]2CCC(C(=O)N[C@@H]3CCCc4ccccc43)N2C1=O (stereo partly drawn) [Example 6]	–	< 10 nM	–	< 100 nM	< 100 nM	–	< 100 nM	< 100 nM
CN[C@@H](C)C(=O)N[C@H]1CN(S(=O)(=O)CC/C=C/CCS(=O)(=O)N2CC[C@H]3CC[C@@H](C(=O)NC(c4ccccc4)c4ccccc4)N3C(=O)[C@@H](NC(=O)[C@H](C)NC)C2)CC[C@H]2CCC(C(=O)NC(c3ccccc3)c3ccccc3)N2C1=O (stereo partly drawn) [Example 7]	–	< 10 nM	–	< 300 nM	< 300 nM	–	< 1000 nM	< 1000 nM
CN[C@@H](C)C(=O)N[C@H]1CN(S(=O)(=O)CCC/C=C/CCCS(=O)(=O)N2CC[C@H]3CC[C@@H](C(=O)NC(c4ccccc4)c4ccccc4)N3C(=O)[C@@H](NC(=O)[C@H](C)NC)C2)CC[C@H]2CCC(C(=O)NC(c3ccccc3)c3ccccc3)N2C1=O (stereo partly drawn) [Example 8]	–	< 10 nM	–	< 100 nM	< 100 nM	–	< 1000 nM	< 1000 nM
CN[C@@H](C)C(=O)N[C@H]1CN(S(=O)(=O)CCCCCCS(=O)(=O)N2CC[C@H]3CC[C@@H](C(=O)NC(c4ccccc4)c4ccccc4)N3C(=O)[C@@H](NC(=O)[C@H](C)NC)C2)CC[C@H]2CCC(C(=O)NC(c3ccccc3)c3ccccc3)N2C1=O (stereo partly drawn) [Example 9]	–	< 10 nM	–	< 100 nM	< 100 nM	–	< 1000 nM	< 1000 nM
CN[C@@H](C)C(=O)N[C@H]1CN(S(=O)(=O)CCCCCCCCS(=O)(=O)N2CC[C@H]3CC[C@@H](C(=O)NC(c4ccccc4)c4ccccc4)N3C(=O)[C@@H](NC(=O)[C@H](C)NC)C2)CC[C@H]2CCC(C(=O)NC(c3ccccc3)c3ccccc3)N2C1=O (stereo partly drawn) [Example 10]	–	< 10 nM	–	< 100 nM	< 100 nM	–	< 1000 nM	< 1000 nM
CN[C@@H](C)C(=O)N[C@H]1CN(C(=O)Nc2ccc(Cc3ccc(NC(=O)N4CC[C@H]5CC[C@@H](C(=O)N[C@@H]6CCCc7ccccc76)N5C(=O)[C@@H](NC(=O)[C@H](C)NC)C4)cc3)cc2)CC[C@H]2CCC(C(=O)N[C@@H]3CCCc4ccccc43)N2C1=O (stereo partly drawn) [Example 12]	< 100 nM	< 10 nM	< 100 nM	< 100 nM	< 100 nM	–	–	–
CN[C@@H](C)C(=O)N[C@H]1CN(C(=O)NCCCCCCNC(=O)N2CC[C@H]3CC[C@@H](C(=O)NC(c4ccccc4)c4ccccc4)N3C(=O)[C@@H](NC(=O)[C@H](C)NC)C2)CC[C@H]2CCC(C(=O)NC(c3ccccc3)c3ccccc3)N2C1=O (stereo partly drawn) [Example 13]	< 100 nM	< 30 nM	< 100 nM	< 300 nM	< 300 nM	–	–	–
CN[C@@H](C)C(=O)N[C@H]1CN(C(=O)Nc2ccc(NC(=O)N3CC[C@H]4CC[C@@H](C(=O)N[C@H]5C[C@@H]5c5ccc(F)cc5)N4C(=O)[C@@H](NC(=O)[C@H](C)NC)C3)cc2)CC[C@H]2CC[C@@H](C(=O)N[C@H]3C[C@@H]3c3ccc(F)cc3)N2C1=O [Example 29]	< 5000 nM	< 1000 nM	< 5000 nM	< 1000 nM	< 1000 nM	–	–	–
CN[C@@H](C)C(=O)N[C@H]1CN(C(=O)Nc2ccc(NC(=O)N3CC[C@H]4CC[C@@H](C(=O)N[C@@H]5CCC[C@H]5c5ccccc5)N4C(=O)[C@@H](NC(=O)[C@H](C)NC)C3)cc2)CC[C@H]2CC[C@@H](C(=O)N[C@@H]3CCC[C@H]3c3ccccc3)N2C1=O [Example 32]	< 1000 nM	< 3000 nM	< 1000 nM	< 3000 nM	< 3000 nM	–	–	–
CN[C@@H](C)C(=O)N[C@H]1CN(C(=O)Nc2ccc(NC(=O)N3CC[C@H]4CC[C@@H](C(=O)N[C@H]5CCC[C@@H]5c5ccccc5)N4C(=O)[C@@H](NC(=O)[C@H](C)NC)C3)cc2)CC[C@H]2CC[C@@H](C(=O)N[C@H]3CCC[C@@H]3c3ccccc3)N2C1=O [Example 33]	< 1000 nM	< 3000 nM	< 1000 nM	< 3000 nM	< 3000 nM	–	–	–
CN[C@@H](C)C(=O)N[C@H]1CN(C(=O)Nc2ccc(NC(=O)N3CC[C@H]4CC[C@@H](C(=O)N[C@@H]5CCC[C@@H]5c5ccccc5)N4C(=O)[C@@H](NC(=O)[C@H](C)NC)C3)cc2)CC[C@H]2CC[C@@H](C(=O)N[C@@H]3CCC[C@@H]3c3ccccc3)N2C1=O [Example 34]	< 100 nM	< 1000 nM	< 100 nM	< 1000 nM	< 1000 nM	–	–	–
